Results as given in patent US10039759B2, “Quinolines as FGFR kinase modulators” (priority 2011, dated 2018).
Where two headings read alike, the source gives them in different places.

Legend:
[1] = target: T1, Ba/F3-FGFR3-transfected cells (Homo sapiens, UniProt P22607, cells depend on it, form not given); assay: Ba/F3-FGFR3 (minus IL3 or plus IL3) cellular proliferation assay, Alamar Blue; format: cell-based; settings: minus IL3; 24 hours, Alamar Blue
T1 construct: BAF3-FGFR3 (MIN IL3 Alamar Blue- pIC50); other: minus IL3; 24 hours, Alamar Blue
T1 sequence (P22607 whole entry, change not shown): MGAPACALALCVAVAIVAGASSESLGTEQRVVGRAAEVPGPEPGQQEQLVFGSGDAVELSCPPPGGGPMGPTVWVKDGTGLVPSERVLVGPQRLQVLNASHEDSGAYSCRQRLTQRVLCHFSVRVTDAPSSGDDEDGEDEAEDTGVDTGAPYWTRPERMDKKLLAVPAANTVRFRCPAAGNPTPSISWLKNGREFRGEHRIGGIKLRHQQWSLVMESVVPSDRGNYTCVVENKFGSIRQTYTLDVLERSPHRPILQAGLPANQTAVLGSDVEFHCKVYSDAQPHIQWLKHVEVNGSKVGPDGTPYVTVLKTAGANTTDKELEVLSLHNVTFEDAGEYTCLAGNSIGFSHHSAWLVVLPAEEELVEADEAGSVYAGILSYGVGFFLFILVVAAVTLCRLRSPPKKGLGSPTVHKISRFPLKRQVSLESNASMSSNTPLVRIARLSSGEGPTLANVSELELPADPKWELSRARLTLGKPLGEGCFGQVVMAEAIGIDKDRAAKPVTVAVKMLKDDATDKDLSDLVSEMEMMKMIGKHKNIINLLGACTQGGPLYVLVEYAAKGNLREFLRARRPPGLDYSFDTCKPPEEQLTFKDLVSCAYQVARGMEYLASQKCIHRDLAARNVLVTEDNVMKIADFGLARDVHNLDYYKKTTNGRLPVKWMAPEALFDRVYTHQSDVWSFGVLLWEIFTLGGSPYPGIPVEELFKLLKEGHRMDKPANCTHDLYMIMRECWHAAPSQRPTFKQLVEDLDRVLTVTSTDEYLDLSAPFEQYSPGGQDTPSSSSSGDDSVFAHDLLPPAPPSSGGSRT
Procedure, shortened: (§1)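 Ba/F3-FGFR3 cells (20000 per well) in phenol red-free RPMI-1640 with 10% FBS were exposed to compound (10 μM to 0.1 nM) for 24 h at 37° C. Alamar Blue was then added for 4 h and fluorescence read (ex 540, em 590 nm) to give IC50/pIC50; the counterscreen was run with 10 ng/ml murine IL3.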

[2] = target: T2, Ba/F3-FGFR1-transfected cells (Homo sapiens, UniProt P11362, cells depend on it, form not given); assay: Ba/F3-FGFR1 (minus IL3 or plus IL3) cellular proliferation assay, Alamar Blue; format: cell-based; settings: minus IL3, 24 hours
T2 construct: other: minus IL3; 24 hours, Alamar Blue
T2 sequence (P11362 whole entry, change not shown): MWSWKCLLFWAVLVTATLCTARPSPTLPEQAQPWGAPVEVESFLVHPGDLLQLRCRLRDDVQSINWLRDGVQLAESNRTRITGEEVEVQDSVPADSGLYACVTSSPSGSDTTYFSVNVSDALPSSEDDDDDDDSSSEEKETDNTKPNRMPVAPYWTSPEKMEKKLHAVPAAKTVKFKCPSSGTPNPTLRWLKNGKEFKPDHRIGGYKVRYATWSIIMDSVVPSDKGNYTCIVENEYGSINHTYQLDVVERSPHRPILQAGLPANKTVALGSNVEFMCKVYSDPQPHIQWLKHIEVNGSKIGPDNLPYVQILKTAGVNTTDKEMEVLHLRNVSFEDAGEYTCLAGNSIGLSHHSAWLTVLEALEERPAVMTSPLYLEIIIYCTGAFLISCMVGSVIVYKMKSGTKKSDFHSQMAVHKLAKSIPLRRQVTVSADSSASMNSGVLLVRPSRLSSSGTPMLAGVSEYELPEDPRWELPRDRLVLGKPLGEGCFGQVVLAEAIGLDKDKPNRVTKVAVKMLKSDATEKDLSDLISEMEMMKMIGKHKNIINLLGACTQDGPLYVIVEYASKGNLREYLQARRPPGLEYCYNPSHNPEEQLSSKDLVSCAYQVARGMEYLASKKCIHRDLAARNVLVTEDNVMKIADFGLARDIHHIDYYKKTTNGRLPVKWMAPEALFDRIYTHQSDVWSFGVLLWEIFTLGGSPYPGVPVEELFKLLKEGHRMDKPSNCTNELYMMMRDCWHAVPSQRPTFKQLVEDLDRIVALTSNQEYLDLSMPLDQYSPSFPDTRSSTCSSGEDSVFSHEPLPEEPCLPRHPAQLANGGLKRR
Procedure, shortened: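 Ba/F3-FGFR1 cells (20000/well) were treated with compound (10 μM–0.1 nM) for 24 h at 37 °C. Alamar Blue was then added for 4 h, with fluorescence read at ex 540/em 590 nm to give IC50/pIC50. A counterscreen was run with 10 ng/ml murine IL3.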

[3] = target: Ba/F3-FGFR4-transfected cells (Homo sapiens, UniProt P22455); assay: Ba/F3-FGFR4 cellular proliferation assay, Alamar Blue; format: cell-based; settings: 24 hours
Ba/F3-FGFR4-transfected cells, sequence (P22455 whole entry, change not shown): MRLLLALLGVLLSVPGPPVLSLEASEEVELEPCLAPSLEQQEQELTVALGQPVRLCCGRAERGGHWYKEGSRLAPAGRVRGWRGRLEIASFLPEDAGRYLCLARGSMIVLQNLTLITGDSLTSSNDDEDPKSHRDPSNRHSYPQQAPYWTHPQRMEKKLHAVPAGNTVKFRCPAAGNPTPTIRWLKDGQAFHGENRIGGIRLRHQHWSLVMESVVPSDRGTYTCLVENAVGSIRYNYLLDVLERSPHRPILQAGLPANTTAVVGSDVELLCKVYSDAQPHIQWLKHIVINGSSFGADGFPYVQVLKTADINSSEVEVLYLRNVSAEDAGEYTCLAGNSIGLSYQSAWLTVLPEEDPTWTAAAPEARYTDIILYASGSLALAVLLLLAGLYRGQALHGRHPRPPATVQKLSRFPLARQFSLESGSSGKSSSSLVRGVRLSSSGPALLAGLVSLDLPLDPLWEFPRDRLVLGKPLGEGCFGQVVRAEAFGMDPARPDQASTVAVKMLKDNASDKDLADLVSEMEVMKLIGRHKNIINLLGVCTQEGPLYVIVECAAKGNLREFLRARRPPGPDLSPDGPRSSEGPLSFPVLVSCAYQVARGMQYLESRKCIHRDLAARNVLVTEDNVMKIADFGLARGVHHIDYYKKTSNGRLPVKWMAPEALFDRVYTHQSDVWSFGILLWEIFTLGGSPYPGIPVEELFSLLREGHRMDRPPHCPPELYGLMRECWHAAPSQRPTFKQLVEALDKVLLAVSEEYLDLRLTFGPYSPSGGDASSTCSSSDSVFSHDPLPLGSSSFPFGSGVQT
Procedure, shortened: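 Ba/F3 cells transfected with human FGFR4, 20000 per well in phenol red-free RPMI-1640 with 10% FBS, exposed to compound (10 μM to 0.1 nM) for 24 h at 37 °C. Viability by Alamar Blue (resazurin), 4 h, fluorescence ex 540/em 590 nm; IC50 and pIC50 calculated.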

[4] = target: FGFR2 (h) (Homo sapiens, UniProt P21802); assay: FGFR2 (enzymatic assay), TR-FRET; format: biochemical; settings: 60 min, pIC50 = -log IC50 (M), average if tested multiple times
FGFR2 (h), sequence (P21802 22-821): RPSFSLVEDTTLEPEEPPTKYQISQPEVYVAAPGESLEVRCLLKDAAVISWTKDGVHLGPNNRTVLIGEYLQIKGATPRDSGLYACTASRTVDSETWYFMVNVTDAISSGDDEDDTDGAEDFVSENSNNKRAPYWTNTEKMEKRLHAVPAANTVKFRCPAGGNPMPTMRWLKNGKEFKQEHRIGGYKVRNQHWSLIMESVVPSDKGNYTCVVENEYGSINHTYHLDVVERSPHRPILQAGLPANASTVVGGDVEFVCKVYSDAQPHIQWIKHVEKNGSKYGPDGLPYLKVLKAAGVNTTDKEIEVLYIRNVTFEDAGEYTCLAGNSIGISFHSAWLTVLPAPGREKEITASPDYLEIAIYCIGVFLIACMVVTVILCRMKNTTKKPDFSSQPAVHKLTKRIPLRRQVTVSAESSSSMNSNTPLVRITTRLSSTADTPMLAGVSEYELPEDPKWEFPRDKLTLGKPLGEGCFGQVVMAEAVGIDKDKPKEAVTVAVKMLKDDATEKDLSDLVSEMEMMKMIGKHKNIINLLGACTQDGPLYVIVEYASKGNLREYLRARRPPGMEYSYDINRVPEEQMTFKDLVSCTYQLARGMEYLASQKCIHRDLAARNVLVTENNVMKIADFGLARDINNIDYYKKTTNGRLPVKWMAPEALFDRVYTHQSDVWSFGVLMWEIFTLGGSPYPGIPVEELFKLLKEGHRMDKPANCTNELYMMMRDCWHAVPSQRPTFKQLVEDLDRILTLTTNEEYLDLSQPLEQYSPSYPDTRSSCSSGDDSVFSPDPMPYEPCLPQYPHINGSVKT

[5] = tested on: Ba/F3-FGFR3-transfected cells; assay: Ba/F3-FGFR3 (minus IL3 or plus IL3) cellular proliferation assay, Alamar Blue; format: cell-based; settings: plus IL3 (10 ng/ml murine IL3, counterscreen); 24 hours, Alamar Blue; read-out: BAF3-FGFR3 (PLUS IL3 Alamar Blue pIC50) (converted)
Procedure, shortened: as §1

[6] = tested on: Ba/F3-KDR-transfected cells; assay: Ba/F3-KDR (minus IL3 or plus IL3) cellular proliferation assay, Alamar Blue; format: cell-based; settings: plus IL3 (10 ng/ml murine IL3, counterscreen); 24 hours, Alamar Blue; read-out: BAF3-KDR (PLUS IL3 Alamar Blue pIC50) (converted)
Procedure, shortened: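 Ba/F3-KDR cells, 20000 per well, exposed to compounds (10 μM to 0.1 nM) for 24 h at 37°C in RPMI/10% FBS, then Alamar Blue for 4 h; fluorescence ex 540/em 590 nm gives IC50 and pIC50. Counterscreen run with 10 ng/ml murine IL3.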

[7] = target: FGFR1 (h) (Homo sapiens, UniProt P11362); assay: FGFR1 (enzymatic assay), TR-FRET; format: biochemical; settings: FGFR 1 pIC50, 5 μM ATP, 60 min; pIC50 = -log IC50 (M); average if tested multiple times
FGFR1 (h), sequence (P11362 22-822): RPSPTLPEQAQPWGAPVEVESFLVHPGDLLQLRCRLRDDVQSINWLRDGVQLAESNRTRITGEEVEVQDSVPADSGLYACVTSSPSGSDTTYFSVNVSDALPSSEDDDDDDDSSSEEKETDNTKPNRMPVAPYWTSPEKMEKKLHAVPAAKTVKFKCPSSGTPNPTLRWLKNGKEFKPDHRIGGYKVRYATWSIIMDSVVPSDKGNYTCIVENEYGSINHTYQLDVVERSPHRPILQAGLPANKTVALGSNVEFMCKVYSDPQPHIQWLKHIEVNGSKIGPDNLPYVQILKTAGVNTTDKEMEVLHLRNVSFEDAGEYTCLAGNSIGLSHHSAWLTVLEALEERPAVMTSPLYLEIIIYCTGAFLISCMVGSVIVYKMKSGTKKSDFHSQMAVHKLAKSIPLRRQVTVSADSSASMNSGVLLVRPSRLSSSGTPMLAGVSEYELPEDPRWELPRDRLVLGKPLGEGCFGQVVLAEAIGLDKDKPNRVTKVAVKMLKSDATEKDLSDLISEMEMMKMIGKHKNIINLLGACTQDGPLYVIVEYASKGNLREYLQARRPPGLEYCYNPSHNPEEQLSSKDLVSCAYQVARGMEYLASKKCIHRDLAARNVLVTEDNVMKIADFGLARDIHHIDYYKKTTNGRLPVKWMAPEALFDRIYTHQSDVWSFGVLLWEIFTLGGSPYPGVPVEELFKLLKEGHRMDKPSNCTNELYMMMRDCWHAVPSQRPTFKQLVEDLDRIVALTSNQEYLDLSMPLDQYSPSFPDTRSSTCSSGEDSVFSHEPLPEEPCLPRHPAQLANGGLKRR

[8] = 0.4 μM ATP, read-out: FGFR 2 pIC50 (converted)

| Structure (SMILES) | BAF3-FGFR3 (MIN IL3 Alamar Blue- pIC50) [1] | BAF3-FGFR1 (MIN IL3 pIC50) [2] | BAF3-FGFR 4 (pIC50) [3] | IC50 [4, 8] | IC50 [5] | IC50 [6] | IC50 [7] | IC50 ([4]; FGFR 2 pIC50, 0.4 μM ATP) |
| --- | --- | --- | --- | --- | --- | --- | --- | --- |
| COc1cc(OC)cc(N(CCCN2CCCC2=O)c2ccc3ncc(-c4cnn(C)c4)cc3c2)c1 [Compound 10] | 6.2 | 6.03 | 5.63 | 1.29e-08 M | – | – | – | – |
| C#CCN(c1cc(OC)cc(OC)c1)c1ccc2ncc(-c3cnn(C)c3)cc2c1 [Compound 6] | 5.79 | 5.7 | 5.4 | 3.02e-08 M | > 10000 nM | > 10000 nM | 1.51e-08 M | – |
| COc1cc(Nc2ccc3ncc(-c4cnn(C5CCCCO5)c4)cc3c2)cc(OC)c1 (centres unmarked) [Int. 8] | ~5.53 | 5.29 | 5.04 | 3.72e-08 M | > 10000 nM | > 10000 nM | 9.55e-08 M | – |
| COc1cc(OC)cc(N(CCCO)c2ccc3ncc(-c4cnn(C)c4)cc3c2)c1 [Compound 4] | 6.17 | 6.26 | 5.87 | 1.35e-08 M | > 10000 nM | > 10000 nM | 1.91e-08 M | – |
| COc1cc(OC)cc(N(Cc2nccn2S(=O)(=O)N(C)C)c2ccc3ncc(-c4cnn(C)c4)cc3c2)c1 [Compound 9] | 6.17 | 6.14 | 5.18 | 7.76e-09 M | > 10000 nM | > 10000 nM | 5.62e-09 M | – |
| COc1cc(OC)cc(N(CCCN)c2ccc3ncc(-c4cnn(C)c4)cc3c2)c1 [Compound 11] | 6.97 | 6.67 | 6.39 | 2.29e-09 M | > 10000 nM | > 10000 nM | 3.63e-09 M | – |
| COc1cc(OC)cc(N(CCNC(C)C)c2ccc3ncc(-c4cn[nH]c4)cc3c2)c1 [Compound 21] | 7.57 | 7.55 | 6.79 | 2.57e-09 M | > 10000 nM | > 10000 nM | – | – |
| COc1cc(OC)cc(N(CC#Cc2ncccc2OC)c2ccc3ncc(-c4cnn(C)c4)cc3c2)c1 [Compound 17] | 7.63 | 7.35 | 6.98 | 1.2e-07 M | > 10000 nM | > 10000 nM | 8.32e-08 M | – |
| COc1cc(OC)cc(N(CC(O)C(F)(F)F)c2ccc3ncc(-c4cnn(C)c4)cc3c2)c1 (single isomer, unassigned) [Compound 24] | ~7.67 | 7.73 | 6.6 | 4.9e-09 M | > 10000 nM | > 10000 nM | – | – |
| COc1cc(OC)cc(N(CCNC(C)C)c2ccc3ncc(-c4cnn(C)c4)cc3c2)c1 [Compound 1] | 7.555 | 7.4 | 7.19 | 4.95e-09 M | – | – | – | – |
| COc1cc(OC)c(F)c(N(CCNC(C)C)c2ccc3ncc(-c4cnn(C)c4)cc3c2)c1 [Compound 2] | 7.86 | 8.3 | 7.83 | 3.24e-09 M | – | – | 1.32e-09 M | – |
| COc1cc(OC)cc(N(CCNC(C)C)c2ccc3ncc(-c4cnn(C5CCCCO5)c4)cc3c2)c1 (centres unmarked) [Compound 22] | 7.78 | 7.85 | ~7.11 | 3.89e-09 M | > 10000 nM | > 10000 nM | 1.2e-09 M | – |
| COc1cc(OC)cc(N(Cc2ncc[nH]2)c2ccc3ncc(-c4ccncc4)cc3c2)c1 [Compound 57] | ~6.77 | 6.75 | 6.16 | 2.29e-09 M | – | – | 2.82e-09 M | – |
| CNCCN(c1ccc2ncc(-c3cnn(C)c3)cc2c1)c1c(F)c(OC)cc(OC)c1F [Compound 43] | ~8 | 8.68 | ~8.02 | 2.45e-09 M | – | – | 1.07e-09 M | – |
| COc1cc(OC)c(F)c(N(CC#Cc2ncccc2OC)c2ccc3ncc(-c4cnn(C)c4)cc3c2)c1 [Compound 26] | 8.17 | 7.95 | 7.77 | 1.05e-08 M | – | – | 4.79e-09 M | – |
| COc1cc(OC)cc(N(Cc2nccn2S(=O)(=O)N(C)C)c2ccc3ncc(-c4cccnc4)cc3c2)c1 [Compound 60] | 5.22 | 5.37 | <5 | 1.95e-08 M | – | – | – | – |
| COc1cc(OC)cc(N(CCCNCC(F)(F)F)c2ccc3ncc(-c4cnn(C)c4)cc3c2)c1 [Compound 5] | 5.67 | 5.79 | 5.5 | 3.16e-08 M | – | – | – | – |
| COc1cc(OC)cc(N(CC#Cc2nccn2C)c2ccc3ncc(-c4cnn(C)c4)cc3c2)c1 [Compound 48] | 7.62 | 7.24 | 7.17 | 1.45e-08 M | > 10000 nM | > 10000 nM | – | – |
| COc1cc(OC)cc(N(Cc2ncc[nH]2)c2ccc3ncc(-c4cccnc4)cc3c2)c1 [Compound 59] | 6.50 | 6.36 | 6.02 | 3.02e-09 M | > 10000 nM | > 10000 nM | 4.68e-09 M | – |
| COc1cc(OC)cc(N(CCCN2CCCO2)c2ccc3ncc(-c4cnn(C)c4)cc3c2)c1 [Compound 19] | 6.26 | 6.32 | 5.71 | – | – | – | – | 1.15e-08 M |
| COc1cc(OC)cc(N(Cc2nccn2S(=O)(=O)N(C)C)c2ccc3ncc(-c4ccncc4)cc3c2)c1 [Compound 58] | 5.57 | ~5.86 | <5 | 1.29e-08 M | > 10000 nM | > 10000 nM | – | – |
| COc1cccnc1C#CCN(c1ccc2ncc(-c3cnn(C)c3)cc2c1)c1c(F)c(OC)cc(OC)c1F [Compound 27] | 8.22 | 8.715 | 8.18 | 5.62e-09 M | – | – | 1.64e-09 M | – |
